≈ marks a conversion by molar mass, not a printed value. Entries after “also recorded” stand apart in the source; their conditions may differ. Where two headings read alike, the source gives them in different places.
How the values were obtained:
[1] = tested on: Mycobacterium tuberculosis pMSp12::GFP; test: microbe, parasite or virus in culture; assay type: cell-based
[2] = tested on: Trypanosoma brucei brucei 427 trypomastigotes; test: In vitro anti-trypanosomal assay; assay type: cell-based; conditions: 24 h, 427 strain, read-out: IC50 T. b. brucei
Description: Trypanosoma brucei brucei 427 trypomastigotes were cultured in iscove’s modified Dulbecco’s medium (IMDM; Lonza, Basel, Switzerland) supplemented with 10% fetal calf serum, HMI-9 supplement, hypoxanthine and penicillin/streptomycin at 37 °C in a 5% CO2 incubator. Serial dilutions of test compounds were incubated with the parasites in 96-well plates for 24 h and residual parasite viability in the wells determined as previously reported.

HEK293 cells = test: In vitro cytotoxicity assay; assay type: cell-based; conditions: Homo sapiens, HEK293, read-out: IC50 HEK293
[3] = tested on: 3D7 strain of Plasmodium falciparum; test: In vitro antiplasmodial assay (pLDH); assay type: cell-based
[4] = tested on: ESKAPE (E. faecium, A. baumanni, K. pneumoniae, P. aeruginosa, S. aureus) pathogens; test: Antibacterial broth microdilution, ESKAPE pathogens; assay type: cell-based; conditions: colistin and vancomycin as standards
S. aureus (MRSA) = test: microbe, parasite or virus in culture; assay type: cell-based; conditions: Staphylococcus aureus, read-out: MIC against S. aureus (MRSA)
A. baumanni = test: Antibacterial broth microdilution, A. baumanni; assay type: cell-based; conditions: read-out: MIC against A. baumanni
[5] = Mycobacterium tuberculosis, H37RV, 336 h
[6] = Plasmodium falciparum, 3D7, 48 h, read-out: IC50 Pf 3D7, chloroquine sensitive strain 3D7, 48 h, pLDH
[7] = read-out: IC50 Pf 3D7, chloroquine sensitive strain 3D7, 48 h, pLDH

Compound: CCOC(=O)c1cn(Cc2ccccc2)c2ccc(N)cc2c1=O [Compound 12, Ethyl 6-amino-1-benzyl-4-oxo-1,4-dihydroquinolone-3-carboxylate]
- MIC90 [1, 5]: > 125 µM
- IC50 ([2]; Trypanosoma brucei): > 20 µM
- IC50 (HEK293 cells): > 32 µg/mL
- IC50 [3, 6]: 10 µM

Compound: CCn1cc(C(=O)NCCNCCO)c(=O)c2cc(OCc3ccc(C(F)(F)F)cc3)c(Cl)cc21 [Compound 8c, 7-Chloro-1-ethyl-N-(2-((2-hydroxyethyl)amino)ethyl)-4-oxo-6-((4-(trifluoromethyl)benzyl)oxy)-1,4-dihydroquinolone-3-carboxamide]
- IC50 [2]: 1.5 µM
- IC50 ([2]; Trypanosoma brucei): < 2 µM
- activity against ESKAPE pathogens (in words) [4]: moderate to poor activity; also recorded: moderate to weak, narrow spectrum activity
- MIC (S. aureus (MRSA)): 16 µg/mL (≈ 31.3 µM)
- IC50 (HEK293 cells): > 32 µg/mL
- MIC (A. baumanni): 32 µg/mL (≈ 62.5 µM)

Compound: CCOC(=O)c1cn(CC)c2ccc(OCc3ccc(C(F)(F)F)cc3)cc2c1=O [Compound 7a, Ethyl 1-ethyl-4-oxo-6-((4-(trifluoromethyl)benzyl)oxy)-1,4-dihydroquinolone-3-carboxylate]
- MIC90 [1, 5]: > 125 µM
- IC50 ([2]; Trypanosoma brucei): 18.5 µM
- IC50 (HEK293 cells): > 32 µg/mL

Compound: CCOC(=O)c1cn(CC)c2ccc([N+](=O)[O-])cc2c1=O [Compound 11, Ethyl 1-ethyl-6-nitro-4-oxo-1,4-dihydroquinolone-3-carboxylate]
- MIC90 [1, 5]: 31.3 µM (≈ 9.09 µg/mL)
- IC50 ([2]; Trypanosoma brucei): > 20 µM
- IC50 (HEK293 cells): > 32 µg/mL
- IC50 [3, 6]: > 20 µM

Compound: Nc1ccc2c(c1)c(=O)c(C(=O)NCCOCCO)cn2Cc1ccccc1 [Compound 14, 6-Amino-1-benzyl-N-(2-(2-hydroxyethoxy)ethyl)-4-oxo-1,4-dihydroquinolone-3-carboxamide]
- MIC90 [1]: >125 µM
- MIC90 [1, 5]: > 125 µM
- IC50 ([2]; Trypanosoma brucei): > 20 µM
- IC50 (HEK293 cells): > 32 µg/mL
- IC50 [3, 6]: > 20 µM
- IC50 Pf 3D7 ([3]; chloroquine sensitive strain 3D7, 48 h, pLDH): complete loss of antiplasmodial activity

Compound: CCn1cc(C(=O)NCCOCCO)c(=O)c2cc(Cn3cnc4c3c(=O)n(C)c(=O)n4C)ccc21 [Compound 4b, 6-((1,3-Dimethyl-2,6-dioxo-1,2,3,6-tetrahydro-7H-purin-7-yl)methyl)-1-ethyl-N-(2-(2-hydroxyethoxy)ethyl)-4-oxo-1,4-dihydroquinolone-3-carboxamide]
- MIC90 [1, 5]: > 125 µM
- IC50 ([2]; Trypanosoma brucei): > 20 µM
- IC50 (HEK293 cells): > 32 µg/mL
- IC50 [3, 6]: > 20 µM

Compound: Cn1c(=O)c2c(ncn2Cc2ccc3c(c2)c(=O)c(C(=O)NCCNCCO)cn3Cc2ccc(Br)cc2)n(C)c1=O [Compound 4g, 1-(4-Bromobenzyl)-6-((1,3-dimethyl-2,6-dioxo-1,2,3,6-tetrahydro-7H-purin-7-yl)methyl)-N-(2-((2-hydroxyethyl)amino)ethyl)-4-oxo-1,4-dihydroquinolone-3-carboxamide]
- MIC90 [1, 5]: 7.9 µM (≈ 5.03 µg/mL)
- IC50 ([2]; Trypanosoma brucei): > 20 µM
- IC50 (HEK293 cells): > 32 µg/mL

Compound: Cn1c(=O)c2c(ncn2Cc2ccc3c(c2)c(=O)c(C(=O)NCCOCCO)cn3Cc2ccc(Br)cc2)n(C)c1=O [Compound 4h, 1-(4-Bromobenzyl)-6-((1,3-dimethyl-2,6-dioxo-1,2,3,6-tetrahydro-7H-purin-7-yl)methyl)-N-(2-(2-hydroxyethoxy)ethyl)-4-oxo-1,4-dihydroquinolone-3-carboxamide]
- MIC90 [1]: >125 µM
- MIC90 [1, 5]: > 125 µM
- IC50 ([2]; Trypanosoma brucei): > 20 µM
- IC50 (HEK293 cells): > 32 µg/mL
- IC50 [3, 6]: 0.68 µM

Compound: O=C(NCCNCCO)c1cn(Cc2ccccc2)c2cc(Cl)c(OCc3ccc(C(F)(F)F)cc3)cc2c1=O [Compound 8g, 1-Benzyl-7-chloro-N-(2-((2-hydroxyethyl)amino)ethyl)-4-oxo-6-((4-(trifluoromethyl)benzyl)oxy)-1,4-dihydroquinolone-3-carboxamide]
- MIC90 [1]: 0.9 µM (≈ 0.517 µg/mL)
- MIC90 [1, 5]: 0.9 to 2 µM (≈ 0.517 to 1.15 µg/mL)
- activity against ESKAPE pathogens (in words) [4]: moderate to poor activity; also recorded: moderate to weak, narrow spectrum activity
- MIC (S. aureus (MRSA)): 32 µg/mL (≈ 55.7 µM)
- IC50 (HEK293 cells): > 32 µg/mL
- IC50 [3, 6]: 0.4 µM
- IC50 [3, 7]: 0.46 µM

Compound: CCOC(=O)c1cn(Cc2ccccc2)c2ccc(/N=C/c3ccc([N+](=O)[O-])o3)cc2c1=O [Compound 13, Ethyl-1-benzyl-6-(((5-nitrofuran-2-yl)methylene)amino)-4-oxo-1,4-dihydroquinolone-3-carboxylate]
- MIC90 [1]: 8.0 µM (≈ 3.56 µg/mL)
- MIC90 [1, 5]: 8 µM (≈ 3.56 µg/mL)
- IC50 ([2]; Trypanosoma brucei): 5.2 µM
- activity against ESKAPE pathogens (in words) [4]: moderate to poor activity; also recorded: moderate to weak, narrow spectrum activity
- IC50 (HEK293 cells): > 32 µg/mL
- IC50 [3, 6]: < 10 µM
- IC50 [3, 7]: 6.5 µM
- MIC (A. baumanni): 16 µg/mL (≈ 35.9 µM)

Compound: O=C(NCCOCCO)c1cn(Cc2ccccc2)c2cc(Cl)c(OCc3ccc(C(F)(F)F)cc3)cc2c1=O [Compound 8h, 1-Benzyl-7-chloro-N-(2-(2-hydroxyethoxy)ethyl)-4-oxo-6-((4-(trifluoromethyl)benzyl)oxy)-1,4-dihydroquinolone-3-carboxamide]
- MIC90 [1, 5]: 16 µM (≈ 9.2 µg/mL)
- IC50 ([2]; Trypanosoma brucei): > 20 µM
- IC50 (HEK293 cells): > 32 µg/mL
- IC50 [3, 6]: > 20 µM

Compound: CCOC(=O)c1cn(Cc2ccc(Br)cc2)c2ccc(Cn3cnc4c3c(=O)n(C)c(=O)n4C)cc2c1=O [Compound 3d, Ethyl 1-(4-bromobenzyl)-6-((1,3-dimethyl-2,6-dioxo-1,2,3,6-tetrahydro-7H-purin-7-yl)methyl)-4-oxo-1,4-dihydroquinolone-3-carboxylate]
- MIC90 [1, 5]: 15.6 µM (≈ 9.02 µg/mL)
- IC50 ([2]; Trypanosoma brucei): 21.6 µM
- IC50 (HEK293 cells): > 32 µg/mL
- IC50 [3, 6]: 13.6 µM

Compound: Cn1c(=O)c2c(ncn2Cc2ccc3c(c2)c(=O)c(C(=O)NCCNCCO)cn3Cc2ccccc2)n(C)c1=O [Compound 4d, 1-Benzyl-6-((1,3-dimethyl-2,6-dioxo-1,2,3,6-tetrahydro-7H-purin-7-yl)methyl)-N-(2-((2-hydroxyethyl)amino)ethyl)-4-oxo-1,4-dihydroquinolone-3-carboxamide]
- MIC90 [1, 5]: 7.9 µM (≈ 4.41 µg/mL)
- IC50 ([2]; Trypanosoma brucei): > 20 µM
- IC50 (HEK293 cells): > 32 µg/mL
- IC50 [3, 6]: ≥ 25 µM
- IC50 [3, 7]: > 20 µM

Compound: CCn1cc(C(=O)NCCOCCO)c(=O)c2cc(OCc3ccc(C(F)(F)F)cc3)c(Cl)cc21 [Compound 8d, 7-Chloro-1-ethyl-N-(2-(2-hydroxyethoxy)ethyl)-4-oxo-6-((4-(trifluoromethyl)benzyl)oxy)-1,4-dihydroquinolone-3-carboxamide]
- MIC90 [1, 5]: > 125 µM
- IC50 ([2]; Trypanosoma brucei): > 20 µM
- IC50 (HEK293 cells): > 32 µg/mL
- IC50 [3, 6]: > 20 µM

Compound: COCCNC(=O)c1cn(Cc2ccccc2)c2ccc(Cn3cnc4c3c(=O)n(C)c(=O)n4C)cc2c1=O [Compound 4f, 1-Benzyl-6-((1,3-dimethyl-2,6-dioxo-1,2,3,6-tetrahydro-7H-purin-7-yl)methyl)-N-(2-methoxyethyl)-4-oxo-1,4-dihydroquinolone-3-carboxamide]
- MIC90 [1, 5]: > 125 µM
- IC50 ([2]; Trypanosoma brucei): > 20 µM
- IC50 (HEK293 cells): > 32 µg/mL
- IC50 [3, 6]: > 20 µM

Compound: CCOC(=O)c1cn(CC)c2ccc(Cn3cnc4c3c(=O)n(C)c(=O)n4C)cc2c1=O [Compound 3a, Ethyl 6-((1,3-dimethyl-2,6-dioxo-1,2,3,6-tetrahydro-7H-purin-7-yl)methyl)-1-ethyl-4-oxo-1,4-dihydroquinolone-3-carboxylate]
- MIC90 [1]: >125 µM
- MIC90 [1, 5]: > 125 µM
- IC50 ([2]; Trypanosoma brucei): > 20 µM
- IC50 (HEK293 cells): > 32 µg/mL
- IC50 [3, 6]: > 20 µM

Compound: CCn1cc(C(=O)OC)c(=O)c2cc(C(=O)/C=C/c3c(Cl)cccc3Cl)ccc21 [Compound 16, Methyl (E)-Methyl-6-(3-(2,6-dichlorophenyl)acryloyl)-1-ethyl-4-oxo-1,4-dihydroquinolone-3-carboxylate]
- MIC90 [1]: 0.9 µM (≈ 0.387 µg/mL)
- MIC90 [1, 5]: 0.9 to 2 µM (≈ 0.387 to 0.861 µg/mL)
- IC50 [2]: 1.5 µM
- IC50 ([2]; Trypanosoma brucei): < 2 µM
- melting point: 247 to 249 °C
- IC50 (HEK293 cells): > 32 µg/mL
- IC50 [3, 6]: 11.7 µM

Compound: Cn1c(=O)c2c(ncn2Cc2ccc3c(c2)c(=O)c(C(=O)NCCOCCO)cn3Cc2ccccc2)n(C)c1=O [Compound 4e, 1-Benzyl-6-((1,3-dimethyl-2,6-dioxo-1,2,3,6-tetrahydro-7H-purin-7-yl)methyl)-N-(2-(2-hydroxyethoxy)ethyl)-4-oxo-1,4-dihydroquinolone-3-carboxamide]
- MIC90 [1, 5]: > 125 µM
- IC50 ([2]; Trypanosoma brucei): 26.8 µM
- IC50 (HEK293 cells): > 32 µg/mL
- IC50 [3, 6]: ≥ 25 µM
- IC50 [3, 7]: > 20 µM

Compound: CCn1cc(C(=O)NCCOCCO)c(=O)c2cc(OCc3ccc(C(F)(F)F)cc3)ccc21 [Compound 8a, 1-Ethyl-N-(2-(2-hydroxyethoxy)ethyl)-4-oxo-6-((4-(trifluoromethyl)benzyl)oxy)-1,4-dihydroquinolone-3-carboxamide]
- MIC90 [1, 5]: 7.8 µM (≈ 3.73 µg/mL)
- IC50 ([2]; Trypanosoma brucei): 14.1 µM
- IC50 (HEK293 cells): > 32 µg/mL
- IC50 [3, 6]: < 10 µM
- IC50 [3, 7]: 6.8 µM

Compound: CCn1cc(C(=O)NCCNCCO)c(=O)c2cc(Cn3cnc4c3c(=O)n(C)c(=O)n4C)ccc21 [Compound 4a, 6-((1,3-Dimethyl-2,6-dioxo-1,2,3,6-tetrahydro-7H-purin-7-yl)methyl)-1-ethyl-N-(2-((2-hydroxyethyl)amino)ethyl)-4-oxo-1,4-dihydroquinolone-3-carboxamide]
- MIC90 [1]: >125 µM
- MIC90 [1, 5]: > 125 µM
- IC50 ([2]; Trypanosoma brucei): > 20 µM
- IC50 (HEK293 cells): > 32 µg/mL
- IC50 [3, 6]: > 20 µM

Compound: CCOC(=O)c1cn(Cc2ccccc2)c2ccc(Cn3cnc4c3c(=O)n(C)c(=O)n4C)cc2c1=O [Compound 3c, Ethyl 1-benzyl-6-((1,3-dimethyl-2,6-dioxo-1,2,3,6-tetrahydro-7H-purin-7-yl)methyl)-4-oxo-1,4-dihydroquinolone-3-carboxylate]
- MIC90 [1, 5]: > 125 µM
- IC50 ([2]; Trypanosoma brucei): 14.5 µM
- IC50 (HEK293 cells): > 32 µg/mL
- IC50 [3, 6]: > 20 µM
